# Reference: patent publication US6534325B1, “Immunoassay for the detection of amphetamines, methamphetamines and methylenedioxy designer amphetamines” (priority 2000, dated 2003)
# Like-named read-outs stand apart in the source and are kept apart here.
# Columns and labels:
# [1] = test system: amphetamine and methamphetamine monoclonal antibodies (mouse); assay: Roche Hitachi AMP/MDMA immunoassay (method of the invention, MDMA calibrator), cross-reactivity; details: cutoff 300 ng/ml, MDMA calibrator, HITACHI 917 analyzer
# [2] = test system: amphetamine antibody and methamphetamine antibody; details: cutoff 500 ng/ml, currently marketed assay, cited from earlier work
# [3] = test system: amphetamine antibody and methamphetamine antibody; details: cutoff 1000 ng/ml, currently marketed assay, cited from earlier work
# [4] = test system: amphetamine antibody and methamphetamine antibody; details: cutoff 500 ng/ml, currently marketed assay, cited from earlier work; remark: listed apart in the source
# [5] = test system: amphetamine and methamphetamine monoclonal antibodies (mouse); assay: Roche Hitachi AMP/MDMA immunoassay with MDA calibrator, cross-reactivity; details: cutoff 300 ng/ml, HITACHI 717 analyzer
# [6] = test system: amphetamine antibody and methamphetamine antibody; details: cutoff 1000 ng/ml, currently marketed assay, cited from earlier work; remark: listed apart in the source
smiles,measurement,setting,value
"CCC(N)Cc1ccc2c(c1)OCO2 (racemic) [BDB, (±)-(3,4-methylenedioxyphenyl)-2-butanamine]","Cross-reactivity, Roche Hitachi AMP/MDMA",[1],4.7%
"CCC(Cc1ccc2c(c1)OCO2)NC (racemic) [MBDB, (±)-N-methyl-1-(3,4-methylenedioxyphenyl)-2-butanamine]","Cross-reactivity, Roche Hitachi AMP/MDMA",[1],70.0%
"CC(N)Cc1ccc2c(c1)OCO2 (racemic) [MDA, (±)-3,4-methylenedioxyamphetamine]","Cross-reactivity, Roche Integra AMPSC",[2],40%
same,"Cross-reactivity, Abbott TDX AMP/methAMP",[3],148%
same,"Cross-reactivity, Roche Hitachi AMP",[4],35.5%
same,"Cross-reactivity, Roche Hitachi AMP/MDMA",[1],25.0%
same,"Cross-reactivity, Roche Hitachi AMP/MDMA, MDA used as calibrator",[5],100.0%
same,"Cross-reactivity, CEDIA DAU AMP",[6],1.9%
"CNC(C)Cc1ccc2c(c1)OCO2 (racemic) [MDMA, (±)-3,4 methylenedioxymethamphetamine]","Cross-reactivity, Roche Integra AMPSC",[2],79%
same,"Cross-reactivity, Abbott TDX AMP/methAMP",[3],97%
same,"Cross-reactivity, Roche Hitachi AMP",[4],36%
same,"Cross-reactivity, Roche Hitachi AMP/MDMA",[1],100.0%
same,"Cross-reactivity, Roche Hitachi AMP/MDMA, MDA used as calibrator",[5],81.0%
same,"Cross-reactivity, CEDIA DAU AMP",[6],69%
"CN[C@@H](C)[C@H](O)c1ccccc1 (racemic) [dl-ephedrine, ephedrine]","Cross-reactivity, Roche Integra AMPSC",[2],<0.1%
same,"Cross-reactivity, Roche Hitachi AMP",[4],<0.1%
same,"Cross-reactivity, Roche Hitachi AMP/MDMA",[1],<0.3%
same,"Cross-reactivity, Roche Hitachi AMP/MDMA, MDA used as calibrator",[5],0.34%
same,"Cross-reactivity, CEDIA DAU AMP",[6],0.4%
"CNC(C)Cc1ccc(O)c(OC)c1 (stereo not drawn) [HMMA, 4-hydroxy-3-methoxymethamphetamine]","Cross-reactivity, Roche Hitachi AMP/MDMA",[1],<0.3%
"CC(N)Cc1ccccc1 (stereo not drawn) [d-AMP, amphetamine]","Cross-reactivity, Roche Integra AMPSC",[2],100%
same,"Cross-reactivity, Abbott TDX AMP/methAMP",[3],100%
same,"Cross-reactivity, Roche Hitachi AMP",[4],100%
same,"Cross-reactivity, Roche Hitachi AMP/MDMA",[1],97.0%
same,"Cross-reactivity, Roche Hitachi AMP/MDMA, MDA used as calibrator",[5],319.0%
same,"Cross-reactivity, CEDIA DAU AMP",[6],101%
"CN[C@@H](C)Cc1ccccc1 [d-MAMP, methamphetamine]","Cross-reactivity, Roche Integra AMPSC",[2],12%
same,"Cross-reactivity, Abbott TDX AMP/methAMP",[3],97.8%
same,"Cross-reactivity, Roche Hitachi AMP",[4],82.2%
same,"Cross-reactivity, Roche Hitachi AMP/MDMA",[1],300.0%
same,"Cross-reactivity, Roche Hitachi AMP/MDMA, MDA used as calibrator",[5],269.0%
same,"Cross-reactivity, CEDIA DAU AMP",[6],100%
"CC(N)Cc1ccccc1 (stereo not drawn) [l-AMP, amphetamine]","Cross-reactivity, Roche Integra AMPSC",[2]; listed as 1-AMP,4.2%
same,"Cross-reactivity, Abbott TDX AMP/methAMP",[3]; listed as 1-AMP,56.9%
same,"Cross-reactivity, Roche Hitachi AMP",[4]; listed as 1-AMP,6%
same,"Cross-reactivity, Roche Hitachi AMP/MDMA",[1]; listed as 1-AMP,3.8%
same,"Cross-reactivity, Roche Hitachi AMP/MDMA, MDA used as calibrator",[5],15.2%
same,"Cross-reactivity, CEDIA DAU AMP",[6]; listed as 1-AMP,3.0%
"CN[C@@H](C)Cc1ccccc1 [l-MAMP, methamphetamine]","Cross-reactivity, Roche Integra AMPSC",[2],12%
same,"Cross-reactivity, Abbott TDX AMP/methAMP",[3]; listed as 1-MAMP,7.2%
same,"Cross-reactivity, Roche Hitachi AMP",[4]; listed as 1-MAMP,0.8%
same,"Cross-reactivity, Roche Hitachi AMP/MDMA",[1]; listed as 1-MAMP,18%
same,"Cross-reactivity, Roche Hitachi AMP/MDMA, MDA used as calibrator",[5],24.7%
same,"Cross-reactivity, CEDIA DAU AMP",[6]; listed as 1-MAMP,12%
"CC(N)C(O)c1ccccc1 (stereo not drawn) [l-PPA, phenylpropanolamine]","Cross-reactivity, Roche Integra AMPSC",[2],1.1%
same,"Cross-reactivity, Roche Hitachi AMP",[4],1.5%
same,"Cross-reactivity, Roche Hitachi AMP/MDMA",[1],0.6%
same,"Cross-reactivity, Roche Hitachi AMP/MDMA, MDA used as calibrator",[5],6.2%
